# Assay results: patent publication US20230295086A1, “NOVEL PSILOCIN DERIVATIVES HAVING PRODRUG PROPERTIES” (COMPASS […], priority 2020, published 2023)
# Marks after values point to notes of the source that are not given here.
# Experiments:
# Micro shake flask Log D = conditions: Octanol:PBS 1:9, pH 7.4, 10 μM, six replicates; novel compounds as hemifumarate
# Experimental: 6 replicates of each test compound were incubated at 10 μM in a 1:9 ratio of Octanol: PBS at pH 7.4. Following a two hour incubation at room temperature shaking at 600 rpm, the incubation plate was centrifuged for 15 minutes to separate the layers and then two aliquots were removed from the PBS layer. The first was left neat and the second was diluted 10-fold to give dilute samples. Internal standards were added to both the calibration curve and the PBS incubation samples for analysis on LC MS/MS.
# All 6 replicates of the neat samples were averaged to give one value for each, with the same calculation performed for the dilute sample values.
# [1] = Stability of psilocin carbonates in 1% HCl; type: physicochemical; conditions: 37° C., approximately 26 hours, LC-MS
# Experimental: 4 mg of each test compound was diluted in 2 ml distilled water to give a solution of 2 mg/ml. 2 ml of test compound solutions were then added to 2 ml of 2% (v/v) HCl in distilled water, yielding a final HCl concentration of […] (pH 0.5). Test solutions were incubated at 37° C. with continuous stirring for approximately 26 hours. Concentrations of parent compound and psilocin were analyzed at various timepoints using LC-MS. Concentrations of both parent prodrug and psilocin liberated were expressed relative to the starting concentration of parent prodrug.
# [2] = Intake study: serum concentrations after oral ingestion by two volunteers; conditions: for c(Psilocin): study 2
# Experimental: Two volunteers (1 M, 1 F) ingested about 1 mg of each one of P1 and M1 (Study 1) and P2 and M2 (Study 2) in gelatin capsules (exact amounts in Tables 3 and 4). One blood sample was collected prior to ingestion of the substances and served as a zero control. After ingestion samples were collected for about 8 h with increasing time intervals between sample taking (exact protocol in Tables 4 and 5). […] The obtained sera were transferred in plastic tubes and NaF (ca. 30 mg) and ascorbic acid (ca. 5 mg) were added to increase analytes stability.
# 200 μL serum were spiked with an internal standard solution (10 μL) and ACN (600 μL) was added to precipitate soluble proteins. Before mixing thoroughly ammonium formate (10 M, 200 μL) was added separate the aqueous from the organic phase. After centrifugation (6 min, 4,000×g), 500 μL of the organic phase were transferred into another vial and evaporated to dryness at 40° C. under a gentle stream of nitrogen. Samples were reconstituted in 100 μL mobile phase (A/B, 90/10, v/v) and used for analysis. For quantification a blank sample and a six point calibration (0.5, 1.0, 2.0, 5.0, 10, 20 ng/mL) in calf serum were prepared as described above.
# The HPLC-MS system consisted of a Nexera X2 UHPLC system composed of three LC-30AD pumps, a DGU-30A3 degasser, a SIL-30AC autosampler, a CTO-10AS column oven and a CBM-20A controller (Shimadzu, Duisburg, Germany) coupled to a QTRAP 6500plus triple quadrupole linear ion trap mass spectrometer equipped with a TurbolonSpray Interface (Sciex, Darmstadt, Germany). The MS was operated in positive electrospray ionization mode. Data acquisition was performed in scheduled multiple reaction monitoring mode (detection window: 60 s) using Analyst software (version 1.7). MS parameters (declustering potential, entrance potential, collision energy, and collision cell exit potential) were optimized for all substances to obtain the best possible signal intensities (summary of the MRM parameters are given in Table 5). Ion source temperature and ion source voltage were set to 550° C. and +5500 V, respectively. Dwell time was 20 ms for every MRM transition. Curtain gas (N2) pressure was 35 psi, ion source gas 1 and 2 (compressed air) pressure were 50 and 60 psi, respectively, and collision gas (N2) pressure was set to “high.” Chromatographic separation was performed on a Kinetex® biphenyl column (100×2.1 mm, 2.6 μm particle size, Phenomenex, Aschaffenburg, Germany) with a corresponding guard column (SecurityGuard™ ULTRA Cartridges UHPLC Biphenyl for 2.1 mm ID columns, Phenomenex, Aschaffenburg, Germany). The autosampler and the column oven temperature were set to 10° C. and 40° C., respectively. The injection volume was 10 μL.
# [3] = target: T1, serotonin 2A (5-HT2A) receptor (Mus musculus, UniProt P35363); assay: Head twitch response (HTR) in mice; type: in vivo, male C57BL/6J mice; conditions: oral gavage 0.3 mg/kg
# T1 construct: tissue Charles River UK; host or cells: whole living male C57BL/6J mice (in vivo, oral gavage)
# [4] = Kinetic solubility assay (Example 11); conditions: 50 mM PB pH 7.4, target 200 μM, 24 hours shaking at room temperature, UPLC; test compound as hydrochloride
# Experimental: Test and control compounds were diluted to 10 mM in DMSO and then further diluted 1 in 50 in 50 mM PB (pH 7.4) to a target concentration of 200 μM. Samples were vortexed for at least 2 minutes and then left to shake (800 rpm) at room temperature for 24 hours. Visual appearance was assessed before centrifugation and injection into a UPLC system to measure concentration. […] Each compound was tested in duplicate.
# [5] = Shake flask Log D assay (Example 11); type: physicochemical; conditions: 1-Octanol / 100 mM PB pH 7.4, shake flask, LC-MS/MS; test compound as hydrochloride
# Experimental: Test and control compounds were diluted to 10 mM in DMSO. 2 μl of each stock solution was aliquoted into tubes in duplicate. 1-Octanol saturated phosphate buffer (PB) (pH 7.4) was prepared by adding 1-Octanol into 100 ml of 100 mM PB (7.4). PB saturated 1-Octanol was prepared by adding 10 ml of 100 mM PB (7.4) into 100 ml of 1-Octanol. 149 μl of each solution was aliquoted into the corresponding tubes. These were then mixed vigorously for 2 minutes and shaken (800 rpm) at room temperature for one hour. The appropriate volume of buffer and 1-Octanol layer samples was aliquoted and diluted, before detection using LC-MS/MS.
# Log D was calculated according to the following equation: […]
# [6] = Pharmacokinetics in the mouse (plasma psilocin); type: in vivo, male C57BL/6J mice; conditions: IV, 0.3 mg/kg
# Experimental: 27 male C57BL/6J mice weighing 22-25 g at time of purchase (Charles River UK) were group housed (3 s) in polypropylene cages. Mice were maintained on a normal phase 12 hr light-dark cycle (lights on from 07:00-19:00) with ad libitum access to standard pelleted diet (Envigo 2018) and filtered tap water. The holding room was maintained at 21±4° C. with a relative humidity of 55±15%.
# Mice were weighed on the day of dosing and identified by a tail mark using a permanent marker pen. Food was not withdrawn on the day of dosing. […] The remaining animals were divided into two cohorts, with animals in the first cohort receiving a single oral dose of one of the test compounds and animals in the second cohort receiving a single intravenous dose (in a lateral tail vein) of one of the test compounds. Following treatment, animals dosed orally were bled by venesection from the lateral tail vein at 5, 15, 30, 45, 60, 120, and 240 minutes post-dosing. Animals dosed intravenously were bled by venesection from the opposite lateral tail vein at the same timepoints. […] All compounds were formulated in saline and dosed in a volume of 5 ml/kg.
# 25 μl of blood was collected per animal per timepoint. […] Psilocin levels within samples were determined using LC-MS/MS. All pharmacokinetic parameters were calculated manually. […]
# [7] = serum, oral intake of about 1 mg prodrug, mean of 2 volunteers
# T1 sequence (P35363 whole entry): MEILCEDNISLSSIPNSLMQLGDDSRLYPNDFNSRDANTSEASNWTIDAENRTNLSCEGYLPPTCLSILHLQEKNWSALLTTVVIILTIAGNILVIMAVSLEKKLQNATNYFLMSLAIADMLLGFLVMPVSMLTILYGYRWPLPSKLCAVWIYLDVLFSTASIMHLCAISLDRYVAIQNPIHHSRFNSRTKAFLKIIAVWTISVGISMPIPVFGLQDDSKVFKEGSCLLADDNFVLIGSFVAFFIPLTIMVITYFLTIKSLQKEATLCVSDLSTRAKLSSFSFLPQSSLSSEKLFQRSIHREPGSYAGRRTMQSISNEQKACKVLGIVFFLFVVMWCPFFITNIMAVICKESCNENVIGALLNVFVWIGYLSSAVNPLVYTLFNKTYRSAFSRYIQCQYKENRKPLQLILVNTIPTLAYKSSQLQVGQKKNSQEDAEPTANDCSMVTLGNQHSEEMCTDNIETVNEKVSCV
smiles,measurement,setting,value
"CN(C)CCc1c[nH]c2cccc(OC(=O)OC(C)(C)C)c12 [Psilocin-4-yl-tert-butylcarbonate, psilocin-4-yl tert-butyl carbonate]",Mean LogD,Micro shake flask Log D,1.50
same,Degradation of parent compound / conversion to psilocin,[1],rapid and complete chemical degradation to psilocin within approximately four hours
same,"Parent prodrug itself in serum (not detected, LOD)",[2]; serum after oral ingestion of about 1 mg,< 0.07 ng/mL
same,Cmax of psilocin,[2]; [7],1.13 ± 0.01 ng/mL
same,Tmax of psilocin,[2]; [7],1.5 ± 0.933 h
same,elimination constant kel of psilocin,[2]; [7],0.0043 min⁻¹
same,elimination half life t1/2 of psilocin,[2]; [7],2.67 h
same,c(Psilocin),"[2]; serum, test person A, oral P2 0.98 mg salt, 4 min, below LOQ, extrapolated",0.16* ng/mL
same,c(Psilocin),"[2]; serum, test person A, oral P2 0.98 mg salt, 12 min, below LOQ, extrapolated",0.16* ng/mL
same,c(Psilocin),"[2]; serum, test person A, oral P2 0.98 mg salt, 23 min, below LOQ, extrapolated",0.21* ng/mL
same,c(Psilocin),"[2]; serum, test person A, oral P2 0.98 mg salt, 34 min, below LOQ, extrapolated",0.22* ng/mL
same,c(Psilocin),"[2]; serum, test person A, oral P2 0.98 mg salt, 50 min",0.43 ng/mL
same,c(Psilocin),"[2]; serum, test person A, oral P2 0.98 mg salt, 77 min",0.57 ng/mL
same,c(Psilocin),"[2]; serum, test person A, oral P2 0.98 mg salt, 113 min",0.99 ng/mL
same,c(Psilocin),"[2]; serum, test person A, oral P2 0.98 mg salt, 130 min",1.14 ng/mL
same,c(Psilocin),"[2]; serum, test person A, oral P2 0.98 mg salt, 165 min",0.96 ng/mL
same,c(Psilocin),"[2]; serum, test person A, oral P2 0.98 mg salt, 205 min",0.83 ng/mL
same,c(Psilocin),"[2]; serum, test person A, oral P2 0.98 mg salt, 270 min",0.66 ng/mL
same,c(Psilocin),"[2]; serum, test person A, oral P2 0.98 mg salt, 335 min",0.47 ng/mL
same,c(Psilocin),"[2]; serum, test person A, oral P2 0.98 mg salt, 395 min",0.40 ng/mL
same,c(Psilocin),"[2]; serum, test person A, oral P2 0.98 mg salt, 458 min, below LOQ, extrapolated",0.30* ng/mL
same,c(Psilocin),"[2]; serum, test person B, oral P2 1.05 mg salt, 6 min, below LOQ, extrapolated",0.24* ng/mL
same,c(Psilocin),"[2]; serum, test person B, oral P2 1.05 mg salt, 13 min, below LOQ, extrapolated",0.26* ng/mL
same,c(Psilocin),"[2]; serum, test person B, oral P2 1.05 mg salt, 22 min",0.48 ng/mL
same,c(Psilocin),"[2]; serum, test person B, oral P2 1.05 mg salt, 34 min",0.75 ng/mL
same,c(Psilocin),"[2]; serum, test person B, oral P2 1.05 mg salt, 50 min",1.12 ng/mL
same,c(Psilocin),"[2]; serum, test person B, oral P2 1.05 mg salt, 77 min",1.12 ng/mL
same,c(Psilocin),"[2]; serum, test person B, oral P2 1.05 mg salt, 100 min",0.92 ng/mL
same,c(Psilocin),"[2]; serum, test person B, oral P2 1.05 mg salt, 127 min",0.73 ng/mL
same,c(Psilocin),"[2]; serum, test person B, oral P2 1.05 mg salt, 165 min",0.53 ng/mL
same,c(Psilocin),"[2]; serum, test person B, oral P2 1.05 mg salt, 205 min",0.51 ng/mL
same,c(Psilocin),"[2]; serum, test person B, oral P2 1.05 mg salt, 270 min",0.40 ng/mL
same,c(Psilocin),"[2]; serum, test person B, oral P2 1.05 mg salt, 331 min",0.33 ng/mL
same,c(Psilocin),"[2]; serum, test person B, oral P2 1.05 mg salt, 394 min, below LOQ, extrapolated",0.30* ng/mL
same,c(Psilocin),"[2]; serum, test person B, oral P2 1.05 mg salt, 454 min, below LOQ, extrapolated",0.29* ng/mL
same,Mean number of head twitches 0-15 mins,[3]; N = 8,3
same,Mean number of head twitches 15-30 mins,[3]; N = 8,2
same,Mean number of head twitches 30-45 mins,[3]; N = 8,1.5
same,Mean number of head twitches 45-60 mins,[3]; N = 8,0.13
same,Mean number of head twitches Total 0-60 mins,[3]; N = 8,6.48
"CN(C)CCc1c[nH]c2cccc(OC(=O)OCc3ccccc3)c12 [Psilocin-4-yl-benzylcarbonate, psilocin-4-yl benzyl carbonate]",Detected concentration,[4],230 µM
same,Mean LogD,[5],2.19
same,Cmax (psilocin),[6],approximately double that of psilocybin
same,Mean number of head twitches 0-15 mins,[3]; N = 8,2.63
same,Mean number of head twitches 30-45 mins,[3]; N = 8,1.88
same,Mean number of head twitches 45-60 mins,[3]; N = 8,1.13
same,Mean number of head twitches Total 0-60 mins,[3]; N = 8,8.2
same,Mean number of head twitches 15-30 mins,"[3]; N = 8, 0.3 mg/kg",4.13
same,Mean number of head twitches 15-30 mins,"[3]; N = 8, listed as Psilocin-4-yl-benylcarbonate, 0.3 mg/kg",of similar magnitude to that induced by psilocybin
